Test results published in patent US7307081B2, “Piperidine derivatives useful as CCR5 antagonists” (priority 2002, dated 2007).
Like-named read-outs stand apart in the source and are kept apart here.

System: HIV-1 luciferase reporter virus (ADA-Luc-FL, YU-2-Luc-FL, HxB-Luc-FL) in U87-CD4-CCR5 cells
Assay: Luciferase Replication Assay (HIV replication)
Type: cell-based
Method: Luciferase Replication Assay:
Plasmids encoding the full length genome of HIV-1 pNL-4-Luc with the gp 120 V-3 loop replaced by the Bgl II fragment of HIV-1 ADA, YU-2 or HxB (ADA-Luc-FL, YU-2-Luc-FL and HxB-Luc-FL) are obtained from Dr. Susan Pontow (Washington University, St. Louis Mo.). Replication-competent luciferase reporter virus stocks are generated by transfection of plasmids into 293T cells using Superfect (Qiagen) or Mirus transfection reagents. Viral stocks are collected 48 hours following transfection and titered for luciferase production on U-87-CCR5 or CXCR4 cells. U87-CD4-CCR5 cells (10^4/ well) are plated in 96-well cell culture plates and incubated overnight. Media is removed and replaced with 50 μl of fresh culture media (DMEM, 10% FCS) and 50 μl of compound diluted in culture medium. Cells are incubated with compound at 37° C. for 1 hour. The resultant supernatant is removed and replaced with 20 μl of media containing compound and infected with an equal volume of diluted or undiluted virus stock at 37° C. for 3-4 hours. The cells are washed once with DMEM, and 200 μl of media containing compound is added. The cultures are incubated for 3 days, the cells lysed in luciferase lysis buffer (Promega, Madison, Wis.) and transferred to Immulon plates (Dynex Technologies, Chantilly Va.). An equal volume of luciferase substrate (Promega, Madison Wis.) is added to lysates and the plates read immediately in a Wallac Luminometer. Fifty and ninety percent inhibitory concentrations are determined using GraphPad PRISM software.

[1] = Human immunodeficiency virus 1, U87/CD4/CCR5, 72 h, read-out: HIV Replication (Luciferase) IC50 nM, U87-CD4-CCR5 cells, replication-competent luciferase reporter virus, cultures incubated 3 days
[2] = read-out: HIV Replication (Luciferase) IC50 nM, U87-CD4-CCR5 cells, replication-competent luciferase reporter virus, cultures incubated 3 days

| SMILES | IC50 [1] [nM] | IC50 [2] [nM] |
| --- | --- | --- |
| Cc1ncnc(C)c1C(=O)N1CCC(C)(N2CCN([C@@H](c3ccccc3)C3CCCNC3)[C@@H](C)C2)CC1 (stereo partly shown) [Example 9] | 11 | – |
| Cc1ncnc(C)c1C(=O)N1CCC(C)(N2CCN([C@@H](c3cccc(F)c3)C3CN(C(=O)C4CC4)C3)[C@@H](C)C2)CC1 [Example 15] | 5 | – |
| Cc1ncnc(C)c1C(=O)N1CCC(C)(N2CCN(C(c3ccccc3)C3CCCN(S(=O)(=O)C4CC4)C3)[C@@H](C)C2)CC1 (stereo partly shown) [Example 6] | – | 0.7 |
| Cc1ncnc(C)c1C(=O)N1CCC(C)(N2CCN(C(Cc3ccccc3)C3CCCNC3)[C@@H](C)C2)CC1 (mixture of isomers) [Example 4] | 4 | – |
| Cc1ncnc(C)c1C(=O)N1CCC(C)(N2CCN([C@@H](Cc3ccccc3)C3CN(S(=O)(=O)C4CC4)C3)[C@@H](C)C2)CC1 [Example 16] | 4 | – |
| Cc1ncnc(C)c1C(=O)N1CCC(C)(N2CCN(C(c3ccccc3)C3CCCN(S(=O)(=O)C4CC4)C3)[C@@H](C)C2)CC1 (stereo partly shown) [Example 5] | – | 15 |
| Cc1ncnc(C)c1C(=O)N1CCC(C)(N2CCN([C@@H](c3cccc(F)c3)C3CCN(S(=O)(=O)C4CC4)C3)[C@@H](C)C2)CC1 (mixture of isomers) [Example 11] | 0.3 | – |
| Cc1ncnc(C)c1C(=O)N1CCC(C)(N2CCN([C@@H](Cc3ccccc3)C3CN(S(C)(=O)=O)C3)[C@@H](C)C2)CC1 [Example 18] | 17 | – |
| Cc1ncnc(C)c1C(=O)N1CCC(C)(N2CCN([C@@H](c3cccc(F)c3)C3CN(S(=O)(=O)c4ccccc4)C3)[C@@H](C)C2)CC1 [Example 13] | 0.7 | – |
| Cc1ncnc(C)c1C(=O)N1CCC(C)(N2CCN(C(c3ccccc3)C3CCCN(S(C)(=O)=O)C3)[C@@H](C)C2)CC1 (stereo partly shown) [Example 7] | 0.5 | – |
| Cc1ncnc(C)c1C(=O)N1CCC(C)(N2CCN([C@@H](Cc3ccccc3)C3CN(S(=O)(=O)c4ccccc4)C3)[C@@H](C)C2)CC1 [Example 17] | 0.4 | – |
| Cc1ncnc(C)c1C(=O)N1CCC(C)(N2CCN([C@@H](Cc3ccccc3)C3CN(C(=O)C4CC4)C3)[C@@H](C)C2)CC1 [Example 19] | 13 | – |
| Cc1ncnc(C)c1C(=O)N1CCC(C)(N2CCN(C(Cc3ccccc3)C3CCCN(S(=O)(=O)c4cccc(Cl)c4)C3)[C@@H](C)C2)CC1 (mixture of isomers) [Example 3] | 2 | – |
| Cc1ncnc(C)c1C(=O)N1CCC(C)(N2CCN([C@@H](c3cccc(F)c3)C3CN(S(=O)(=O)C4CC4)C3)[C@@H](C)C2)CC1 [Example 12] | 1 | – |
| Cc1ncnc(C)c1C(=O)N1CCC(C)(N2CCN([C@@H](c3cccc(F)c3)C3CN(S(C)(=O)=O)C3)[C@@H](C)C2)CC1 [Example 14] | 2 | – |
| Cc1ncnc(C)c1C(=O)N1CCC(C)(N2CCN(C(Cc3ccccc3)C3CCCN(S(=O)(=O)C4CC4)C3)[C@@H](C)C2)CC1 (mixture of isomers) [Example 1] | 2 | – |
| COc1ccc(CN2CCCC(C(Cc3ccccc3)N3CCN(C4(C)CCN(C(=O)c5c(C)ncnc5C)CC4)C[C@@H]3C)C2)cc1 (mixture of isomers) [Example 2] | 25 | – |
| COc1ccc(CN2CCCC([C@H](c3ccccc3)N3CCN(C4(C)CCN(C(=O)c5c(C)ncnc5C)CC4)C[C@@H]3C)C2)cc1 (stereo partly shown) [Example 8] | 1.6 | – |
| Cc1ncnc(C)c1C(=O)N1CCC(C)(N2CCN(C(CC3CCN(S(=O)(=O)C4CC4)CC3)c3cccc(F)c3)[C@@H](C)C2)CC1 (stereo partly shown) [Example 10] | 3 | – |
